Assay results as given in patent publication US20080206222A1, “Preventive/Therapeutic Composition For Free Radical Disease” (priority 2004, published 2008).

What was measured:
[1] = system: rat coronary artery occlusion model; experiment: Test for comparative effect on organ failure (versus human Cu-Zn SOD); type: in vivo; settings: 5 mg/kg intravenously before occlusion and once daily for 5 days; dissection after 10 days; control Ringer's solution with human Cu-Zn SOD
Description: A rat coronary artery occlusion model was subjected to systemic ischemia for 5 minutes, followed by reperfusion. When the level of free radical-dependent chemiluminescence in the peripheral blood was measured using a chemical luminescence manufactured by Showa Denko K. K. from the start of this experiment, a significant increase in the level of free radical was observed from immediately after the initiation of reperfusion. In a test group, the injectable solution of Example 2 was intravenously administered to the rat at 5 mg/kg at 15 minutes before the occlusion of the coronary artery of the rat in advance, and in a control group, a Ringer's solution supplemented with human Cu—Zn SOD was injected in the same manner as in the test group. Also after the initiation of reperfusion, the above pharmaceutical composition of the present invention was injected at the same dose once daily for 5 days, and after 10 days, dissection was carried out, and cardiac, hepatic, renal, pancreatic and cystic cell necrosis indices were determined using a 45 Ca-autoradiography/image analyzer.

[2] = Stability test in aqueous solution (HPLC residual ratio); type: physicochemical; settings: 0.1% aqueous solution in purified water, room temperature
Description: A difference in the stabilities of PVP/fullerene (molecular weight of PVP: 60,000), a fullerene monoester, and salts of a fullerene monoester in an aqueous solution (a storage test at room temperature for 10 days) is shown in Table 7. […] Incidentally, the stability was evaluated by determining the residual ratio of the above substance using the HPLC method by leaving a 0.1% aqueous solution of the above substance (in purified water) at room temperature for 10 days.

[3] = system: human fibrosarcoma cell line HT1080; experiment: Test for cell migration (cell haptotaxis), Boyden double chamber; type: cell-based; settings: HT1080, administered at 300 μM; coulometry and HPLC with ECD
Description: A Boyden double chamber was used, in which a porous film with 8 μm pores was placed, the upper surface of the porous film was coated with Matrigel as a reconstituted basement membrane, the lower surface of the porous film was coated with fibronectin as an extracellular matrix. […] Further, the concentration of ascorbic acid present in the cells was determined by coulometry and HPLC with ECD.

[4] = system: Bovine aortic endothelial cells BAE2; settings: 22 h, 50 μM
Description: Bovine aortic endothelial cells BAE2 were inoculated at a cell density of 8×10^4/cm^2, and after 18 hours, each of a fullerene, ascorbic acid and the fullerenes of the invention of this application of the formulation Nos. 1 to 13 shown in the above Table 1 was administered at a concentration of 50 μM which falls within the range of the level of the respective substances in the normal human blood. After 22 hours, the amounts of fullerenes and ascorbic acid present in the cells were determined by coulometry and HPLC (high-performance liquid chromatography) with ECD (electrochemical detection). The water content in the cells was measured by gas chromatography using 14C-labeled polyethylene glycol and found to be 0.598 μL/cell.

Row | Residual ratio after 10 days (%) [2] [%] | concentration of ascorbic acid present in the cells [3] [µM] | concentration in the cells [4] [µM] | concentration in the cells relative to that outside the cells [4] [times] | Molecule | necrosis of cardiac, hepatic, renal, pancreatic and cystic cells (45Ca-autoradiography/image analyzer) [1]
1 |  |  |  |  | human Cu—Zn SOD: human Cu—Zn SOD added to Ringer's solution for the control group | delayed cell death
2 | 0 | 103 | 60 | 1.2 | O=C1O[C@H]([C@@H](O)CO)C(O)=C1O [Ascorbic acid] | 
